These compounds were tested against T1, Topo II (Saccharomyces cerevisiae, UniProt P06786) (assay: Yeast toxicity in strain overexpressing Topo II (TOP2oe)). Settings: TOP2oe vs wild-type strain.
T1 construct: Strains are wild-type (wt) or constitutively overexpressing Topo II (TOP2oe); endogenous in cells; host or cells: S. cerevisiae A364a background, chromosomal TOP2 with its promoter replaced by the GPD promoter (TOP2oe)
T1 sequence (P06786 1-1428): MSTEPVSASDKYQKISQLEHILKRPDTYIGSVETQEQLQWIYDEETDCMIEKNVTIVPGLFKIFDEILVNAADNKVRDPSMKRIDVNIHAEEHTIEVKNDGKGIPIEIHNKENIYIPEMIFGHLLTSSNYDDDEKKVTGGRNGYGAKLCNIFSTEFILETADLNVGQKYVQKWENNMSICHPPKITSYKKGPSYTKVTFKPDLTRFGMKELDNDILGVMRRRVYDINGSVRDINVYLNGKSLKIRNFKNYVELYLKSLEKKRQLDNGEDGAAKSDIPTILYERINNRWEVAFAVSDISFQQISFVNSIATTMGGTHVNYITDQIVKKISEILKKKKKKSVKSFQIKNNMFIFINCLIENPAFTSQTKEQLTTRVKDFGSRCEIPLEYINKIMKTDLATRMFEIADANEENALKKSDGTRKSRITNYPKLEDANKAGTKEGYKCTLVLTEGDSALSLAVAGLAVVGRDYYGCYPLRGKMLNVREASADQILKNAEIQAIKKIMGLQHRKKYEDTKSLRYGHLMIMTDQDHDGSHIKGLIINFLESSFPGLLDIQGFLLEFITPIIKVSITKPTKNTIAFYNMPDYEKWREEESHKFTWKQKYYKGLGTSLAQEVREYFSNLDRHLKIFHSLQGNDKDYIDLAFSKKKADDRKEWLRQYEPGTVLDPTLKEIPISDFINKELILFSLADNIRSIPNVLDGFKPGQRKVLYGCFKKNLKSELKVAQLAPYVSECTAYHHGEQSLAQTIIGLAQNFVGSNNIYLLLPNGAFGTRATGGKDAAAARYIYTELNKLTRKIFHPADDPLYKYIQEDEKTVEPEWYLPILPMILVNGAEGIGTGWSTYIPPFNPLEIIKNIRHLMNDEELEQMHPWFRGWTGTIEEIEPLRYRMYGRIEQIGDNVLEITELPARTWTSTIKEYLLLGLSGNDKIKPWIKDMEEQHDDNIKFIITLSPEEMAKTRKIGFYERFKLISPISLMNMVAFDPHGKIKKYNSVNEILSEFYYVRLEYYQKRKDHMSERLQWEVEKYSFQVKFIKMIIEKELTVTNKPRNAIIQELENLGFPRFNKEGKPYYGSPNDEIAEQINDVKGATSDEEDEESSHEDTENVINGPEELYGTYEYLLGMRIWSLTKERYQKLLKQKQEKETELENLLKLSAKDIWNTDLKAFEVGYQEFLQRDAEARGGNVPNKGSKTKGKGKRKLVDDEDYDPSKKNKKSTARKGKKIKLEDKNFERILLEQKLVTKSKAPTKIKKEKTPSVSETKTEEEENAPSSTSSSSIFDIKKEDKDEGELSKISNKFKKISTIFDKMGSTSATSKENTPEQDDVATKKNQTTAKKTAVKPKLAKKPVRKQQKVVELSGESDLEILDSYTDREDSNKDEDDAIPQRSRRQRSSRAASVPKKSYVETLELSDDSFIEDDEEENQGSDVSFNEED
Format: cell-based
Text: The strains are derived from the A364a genetic background, with the exception of BY4705, which is derived from the S288C background. Gene disruptions were generated by PCR fragment directed replacement (Baudin, et al., Nucleic Acids Research 21: 3329–30 (1993), Guldener, et al., Nucleic Acids Research 24: 2519–24 (1996)). Yeast overexpressing topoisomerase II was constructed by a PCR fragment directed promoter replacement of the topoisomerase II promoter with the yeast GPD promoter flanked upstream by the URA3 marker. All strains (except BY4705) bear the pleitropic drug sensitizing mutations erg6, pdr1, and pdr3 (Balzi, et al., Journal of Bioenergetics & Biomembranes 27: 71–6 (1995), Delaveau, et al, Molecular & General Genetics 244: 501–11 (1994), Gaber, et al., Molecular & Cellular Biology 9: 3447–56 (1989), Saunders, et al., Canadian Journal of Genetics & Cytology, 24: 493–503 (1982). Subik, et al, Current Genetics 10: 665–70 (1986)). The haploid yeast strain BY4705 (Brachmann, et al., Yeast 14: 115–32 (1998)) was used in the experiments described in FIG. 5. Plasmids expressing yeast or human topoisomerase I genes under the GAL promoter (Knab, et al., Journal of Biological Chemistry 268: 22322–30 (1993). Knab, et al., Journal of Biological Chemistry 270: 6141–8 (1995)) were transformed into BY4705 using standard procedures.
Yeast toxicity assays were performed essentially as follows: Exponentially growing cultures of the appropriate strains were diluted in synthetic complete media to a concentration of 7.4×10^4 cells/mL, and aliquots (135 μL) were transferred to each well of clear flat-bottomed 96 well plates. Compounds were added in duplicate or triplicate as 15 μL of the appropriate dilution in 5% DMSO. A 15 μL portion of 5% DMSO was added to control wells. Assay plates were incubated at 30° C. for approximately seven generations growth in solvent control wells (as monitored by OD660, typically 21–24 hours), then the OD660 of the cultures was measured in a microplate reader (Bio-Tek). […]

Row | SMILES | effect of overexpression of Topo II on toxicity
1 | O=c1c(Cl)c(Cl)cnn1CCCl [compound IIa] | Neither compound shows a large increase in toxicity
2 | O=C(CCl)Nc1ccc(C(=O)N/N=C/c2ccc(Cl)cc2)cc1 [compound Ia] | Neither compound shows a large increase in toxicity
3 | CC(=O)[C@]1(O)Cc2c(O)c3c(c(O)c2[C@@H](O[C@H]2C[C@H](N)[C@H](O)[C@H](C)O2)C1)C(=O)c1ccccc1C3=O [idarubicin, reference compound] | large increase
